# Literature values in patent US11919851B2, “Method for producing polyol-based esters of optionally acylated hydroxycarboxylic acids” (IOI Oleo GmbH, priority 2019, dated 2024).
# Settings: free acid and its salts; prior art statement
structure (smiles),measurement,value
CC(O)CC(=O)O (stereo not shown) [3-hydroxybutyric acid],adverse effects on oral administration,can cause severe vomiting and nausea
